For one assay, the system named is FRDA lymphocytes. The assay is described as follows: Preservation of mitochondrial membrane potential (TMRM flow cytometry) in DEM-treated FRDA lymphocytes. The format is cell-based. Here is the method: FIG. 3. Effect of nitrogen-containing 1,4-benzoquinone derivatives on mitochondrial membrane potential of cultured FRDA cells. Representative flow cytometric two dimensional color density dot plot analyses of mitochondrial membrane potential Δψm in FRDA lymphocytes stained with TMRM and analyzed using the FL2-H channel as described in Experimental Section. The cells were washed twice in phosphate buffered saline, and suspended in phosphate buffered saline containing 20 mM glucose. The percentage of cells with intact Δψm is indicated in the top right quadrant of captions. In each analysis, 10,000 events were recorded. Data are expressed as means±SEM of three independent experiments run in duplicate.
Mitochondrial membrane potential was measured using two different fluorescent dyes, TMRM and JC-1. Δψm was determined as previously described by staining FRDA lymphocyte cells with TMRM (Molecular Probes, Eugene, Oreg.) and analyzing fluorescence emission by flow cytometry in detection channel 2 (FL2-H) (Khdour et al. (2011) Pharmaceut. Res. 28, 2896-2909). Briefly, FRDA lymphocytes were pre-treated with or without the test compounds for 16 h. The cells were treated with 5 mM DEM for 140 min, collected by centrifugation at 300×g for 3 min and then washed twice with phosphate buffered saline. The cells were resuspended in PBS containing […] and incubated at 37° C. in the dark for 15 min with 250 nM TMRM. Cells were collected by centrifugation at 300×g for 3 min and were then washed with phosphate buffered saline. The samples were analyzed immediately by flow cytometry using a 488 nm excitation laser and the FL2-H channel. The results obtained were verified in three independent experiments. […] In each analysis, 10,000 events were recorded. […] The following day, cells were treated with tested compounds and incubated for an additional 12 h before treatment with 1 mM BSO. Δψm was assessed after 24 h using JC-1 Mitochondrial Membrane Potential Detection Kit (Biotium, Inc) following the manufacturer instruction. Glass cover slips were rinsed with phosphate-buffered saline and mounted onto slides, and images were recorded and analyzed with a Zeiss AxioCam MRm and AxioVision 3.1 software (Carl Zeiss Goettingen, Germany) on a Zeiss Axiovert 200 M inverted microscope, equipped with a 40× oil immersion objective.
The ability of the test compounds to preserve mitochondrial membrane potential under conditions of oxidative stress was studied. […] Changes in mitochondrial membrane potential (Δψm) were measured using two different fluorescent dyes, tetramethylrhodamine methyl ester (TMRM) and 5,5′,6,6′-tetrachloro-1,1′,3,3′-tetraethylbenzimidazolocarbocyanine iodide (JC-1). […] The fluorescence signal of TMRM can be directly co-related to Δψm across the inner mitochondrial membrane. […]
(In flow cytometry, cells or beads pass a laser one at a time.)

Assay [1] deals with bovine heart mitochondrial complex I (Bos taurus, UniProt P03887+P17694+P42026). The assay can be described thus: Complex I (NADH-Q1 oxidoreductase) inhibition in submitochondrial particles. The format is biochemical. The following applies: submitochondrial particles, 30° C.; for IC50: read-out: Complex I inhibition IC50; for Emax: read-out: Complex I inhibition Imax.
bovine heart mitochondrial complex I, sequence (P25708 21-464): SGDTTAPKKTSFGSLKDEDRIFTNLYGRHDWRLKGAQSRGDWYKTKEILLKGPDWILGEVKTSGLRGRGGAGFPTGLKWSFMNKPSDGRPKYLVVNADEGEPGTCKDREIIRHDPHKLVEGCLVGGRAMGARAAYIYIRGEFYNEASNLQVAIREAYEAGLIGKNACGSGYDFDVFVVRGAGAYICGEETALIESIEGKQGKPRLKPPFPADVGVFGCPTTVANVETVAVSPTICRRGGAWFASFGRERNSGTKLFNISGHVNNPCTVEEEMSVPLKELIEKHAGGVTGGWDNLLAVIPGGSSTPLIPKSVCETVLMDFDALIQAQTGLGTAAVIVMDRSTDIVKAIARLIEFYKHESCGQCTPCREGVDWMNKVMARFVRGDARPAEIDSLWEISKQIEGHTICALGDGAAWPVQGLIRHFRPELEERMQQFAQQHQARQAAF
bovine heart mitochondrial complex I, sequence (P42026 38-216): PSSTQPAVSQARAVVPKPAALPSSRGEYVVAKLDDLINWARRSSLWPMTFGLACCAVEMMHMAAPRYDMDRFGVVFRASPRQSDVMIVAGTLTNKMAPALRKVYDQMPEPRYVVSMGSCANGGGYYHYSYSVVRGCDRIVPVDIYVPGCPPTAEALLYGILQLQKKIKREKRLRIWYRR
bovine heart mitochondrial complex I, sequence (P17694 34-463): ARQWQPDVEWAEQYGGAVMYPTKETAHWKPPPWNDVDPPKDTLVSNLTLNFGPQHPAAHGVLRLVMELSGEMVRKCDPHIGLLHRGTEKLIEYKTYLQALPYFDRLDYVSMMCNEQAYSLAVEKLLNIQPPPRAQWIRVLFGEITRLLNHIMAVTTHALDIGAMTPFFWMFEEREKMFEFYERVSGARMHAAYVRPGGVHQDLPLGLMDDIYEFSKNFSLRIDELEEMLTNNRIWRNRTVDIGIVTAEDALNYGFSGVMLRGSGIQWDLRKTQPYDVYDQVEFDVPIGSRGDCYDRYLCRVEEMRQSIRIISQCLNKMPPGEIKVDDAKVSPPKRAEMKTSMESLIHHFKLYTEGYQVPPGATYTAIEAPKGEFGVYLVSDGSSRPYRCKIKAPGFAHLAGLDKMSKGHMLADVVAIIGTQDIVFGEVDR
bovine heart mitochondrial complex I, sequence (P15690 24-727, further chain): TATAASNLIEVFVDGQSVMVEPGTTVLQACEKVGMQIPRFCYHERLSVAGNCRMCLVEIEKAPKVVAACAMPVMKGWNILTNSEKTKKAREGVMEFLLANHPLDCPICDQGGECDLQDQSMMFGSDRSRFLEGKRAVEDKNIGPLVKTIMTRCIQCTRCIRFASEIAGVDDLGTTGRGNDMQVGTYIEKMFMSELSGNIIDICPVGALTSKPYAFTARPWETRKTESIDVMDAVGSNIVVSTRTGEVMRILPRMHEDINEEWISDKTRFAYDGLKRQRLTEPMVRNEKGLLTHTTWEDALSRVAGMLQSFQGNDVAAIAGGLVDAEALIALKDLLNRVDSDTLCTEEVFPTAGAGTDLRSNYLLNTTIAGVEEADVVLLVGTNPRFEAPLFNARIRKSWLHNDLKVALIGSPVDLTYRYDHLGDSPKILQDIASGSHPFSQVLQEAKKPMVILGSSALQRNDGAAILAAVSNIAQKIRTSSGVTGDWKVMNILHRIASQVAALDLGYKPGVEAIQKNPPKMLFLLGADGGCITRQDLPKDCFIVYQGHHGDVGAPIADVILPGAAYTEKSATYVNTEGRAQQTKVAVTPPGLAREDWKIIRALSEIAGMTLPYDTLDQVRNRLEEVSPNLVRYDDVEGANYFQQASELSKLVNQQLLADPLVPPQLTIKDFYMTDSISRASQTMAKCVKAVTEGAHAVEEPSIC
bovine heart mitochondrial complex I, sequence (P03887 whole entry): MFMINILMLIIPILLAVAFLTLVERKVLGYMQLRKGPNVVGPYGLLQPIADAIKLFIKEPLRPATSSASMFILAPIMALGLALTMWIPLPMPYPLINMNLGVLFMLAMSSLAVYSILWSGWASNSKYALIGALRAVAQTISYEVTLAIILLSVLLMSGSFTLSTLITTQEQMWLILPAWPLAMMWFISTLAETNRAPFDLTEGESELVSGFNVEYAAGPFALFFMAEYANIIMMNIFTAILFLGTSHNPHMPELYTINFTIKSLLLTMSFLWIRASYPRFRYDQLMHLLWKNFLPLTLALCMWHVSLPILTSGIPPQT
bovine heart mitochondrial complex I, sequence (P42028 37-212, further chain): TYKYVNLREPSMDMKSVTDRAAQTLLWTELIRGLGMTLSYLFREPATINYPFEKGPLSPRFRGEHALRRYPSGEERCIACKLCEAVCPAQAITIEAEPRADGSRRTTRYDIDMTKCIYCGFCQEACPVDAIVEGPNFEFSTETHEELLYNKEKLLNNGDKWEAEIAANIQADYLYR
The next assay deals with CEM leukemia cells. The assay can be described thus: Suppression of ROS production (DCFH-DA flow cytometry) in DEM-treated CEM leukemia cells. The format is cell-based. The following applies: CEM leukemia cells pretreated with DEM, read-out: Scavenging activity (%), suppression of ROS production. As to the method:
FIG. 1. Flow cytometric analysis of CEM leukemia lymphocytes (gray bars) and FRDA lymphocytes (black bars) stained with dichlorodihydrofluorescein diacetate (DCFH-DA) for 20 min, following pretreatment with the test compounds at 5 μM concentration for 16 h, and subsequent treatment with diethyl maleate (DEM) for 60 or 80 min to induce the production of ROS in CEM and FRDA lymphocytes, respectively. Data shown represent the mean±SEM of two different experiments run as duplicates.
Intracellular ROS production was measured in FRDA lymphocyte cells (GM15850, Coriell Cell Repositories, Camden, N.J.) using the oxidant sensitive fluorescent probe 2,7-dichlorodihydrofluorescein diacetate (DCFH-DA) (Molecular Probes) as described previously (Khdour et al. (2011) Pharm. Res. 28, 2896-2909). One mL of FRDA lymphocyte cells or leukemic CEM cells (5×10^5 cells) were plated in a 24-well plate, treated with the test compounds and incubated at 37° C. for 16 h in a humidified atmosphere containing 5% CO2 in air. Cells were treated with 5 mM diethyl maleate (DEM) for 80 min or 60 min respectively, collected by centrifugation at 300×g for 3 min and then washed with phosphate buffered saline (PBS) (Life Technologies). Cells were resuspended in PBS containing 20 mM glucose and incubated at 37° C. in the dark for […] with 10 μM DCFH-DA. Cells were collected by centrifugation at 300×g for 3 min and then washed with PBS. The samples were analyzed immediately by flow cytometry (C6 Accuri, BD Biosciences, San Jose, Calif.), using a 488 nm excitation laser and the FL1-H channel 530±15 nm emission filter. The generation of ROS, mainly peroxides, was detected as a result of the oxidation of DCFH. In each analysis, 10,000 events were recorded after cell debris was electronically gated out. Results obtained were verified by running duplicates and repeating experiments in three independent runs. Results were expressed as percentage of ROS scavenging activity.
The ability of the synthesized analogues to quench ROS and lipid peroxidation was evaluated in FRDA lymphocytes or leukemic CEM cells. These cells were placed under oxidative stress by depleting them of glutathione (GSH) using diethyl maleate (DEM). Depletion of glutathione by treatment FRDA lymphocytes or leukemic CEM cells with DEM has been used to induce oxidative stress in cellular systems by generation of ROS. Intracellular ROS production was measured using the oxidant sensitive fluorescent probe 2,7-dichlorodihydrofluorescein diacetate (DCFH-DA) (Molecular Probes).

Entries after “also recorded” stand apart in the source; their conditions may differ. Some results are limits rather than exact numbers.

As to `CCCCCCCCCCCCCC1=C(OC)C(=O)C=C(NCCCC(=O)OC(C)(C)C)C1=O` [Compound 7, tert-butyl 4-(4-methoxy-3,6-dioxo-5-tridecylcyclohexa-1,4-dienylamino)butanoate], the “Preservation of mitochondrial membrane potential Δψm (in words)” value with FRDA lymphocytes is “preserved mitochondrial membrane potential; also recorded: able to prevent oxidative-stress induced collapse of Δψm”. In assay [1], the IC50 was 540 ± 17 µM and the Emax is above 85%.
Take `CCCCCCCCCCCCCC1=C(OC)C(=O)C=C(NCCCC(=O)OCCCCCC)C1=O` [Compound 18, Hexyl 4-(4-methoxy-3,6-dioxo-5-tridecylcyclohexa-1,4-dienylamino)butanoate]: the “Preservation of mitochondrial membrane potential Δψm (in words)” value in the assay on FRDA lymphocytes is “prevented the loss of Δψm”. In assay [1], the IC50 turned out to be 513 ± 38 µM and the Emax is above 85%.
Take `COC1=C2CCCCCCCCCCCCCCCNC(=CC1=O)C2=O` [Compound 40]: the “Preservation of mitochondrial membrane potential Δψm (in words)” value with FRDA lymphocytes is “prevented the loss of Δψm; also recorded: able to prevent oxidative-stress induced collapse of Δψm”.
`CCCCCCCCCCCCCC1=C(OC)C(=O)C(C)=C(NCCCC(=O)OC(C)(C)C)C1=O` [Compound 43, tert-butyl 4-(4-methoxy-2-methyl-3,6-dioxo-5-tridecylcyclohexa-1,4-dienylamino)butanoate]: the inhibition at 5 µM in the assay with CEM leukemia cells worked out at 35 ± 6%.
In the case of `CCCCCCCCCCCCCC1=C(OC)C(=O)C(C)=C(NCCCC(=O)OCCCC)C1=O` [Compound 46, Butyl 4-(4-methoxy-2-methyl-3,6-dioxo-5-tridecylcyclohexa-1,4-dienylamino)butanoate], in the assay with CEM leukemia cells, the inhibition at 5 µM was determined as 50 ± 5%.
As for `CCCCCCCCCCCCCC1=C(OC)C(=O)C(C)=C(NCCCC(=O)OCCCCCC)C1=O` [Compound 49, Hexyl 4-(4-methoxy-2-methyl-3,6-dioxo-5-tridecylcyclohexa-1,4-dienylamino)butanoate], the inhibition at 5 µM in the assay with CEM leukemia cells turned out to be 16 ± 8%.
Same read-out and setting: to `CCCCCCCCCCCCCC1=C(NCCCC(=O)OCCCCCC)C(=O)C(C)=C(NCCCC(=O)OCCCCCC)C1=O` [Compound 50, 2,5-bis(hexyl 4-aminobutanoate)-3-methyl-6-tridecylcyclohexa-2,5-diene-1,4-dione] belongs 14 ± 1%.

As a reminder, the IC50 is the concentration at which inhibition is half-maximal.

Values taken from US9957214B2, “Multifunctional radical quenchers” (ARIZONA BOARD OF REGENTS ON BEHALF OF ARIZONA STATE …, priority 2012, dated 2018).
